Results on two molecules are retold here after PubChem BioAssay AID1794817.

For the experiment, the target named is Synaptic vesicular amine transporter (Homo sapiens) (UniProt Q05940). The experiment is described as follows: SLC18A2 vesicular uptake inhibitors, dose response (AID 1794817). As to conditions: HEK-293 SLC18A2 OE, FFN206 uptake fluorescence.

pIC50: −log10 of the molar value.

Sequence of Synaptic vesicular amine transporter (Homo sapiens) (Q05940 whole entry, looked up): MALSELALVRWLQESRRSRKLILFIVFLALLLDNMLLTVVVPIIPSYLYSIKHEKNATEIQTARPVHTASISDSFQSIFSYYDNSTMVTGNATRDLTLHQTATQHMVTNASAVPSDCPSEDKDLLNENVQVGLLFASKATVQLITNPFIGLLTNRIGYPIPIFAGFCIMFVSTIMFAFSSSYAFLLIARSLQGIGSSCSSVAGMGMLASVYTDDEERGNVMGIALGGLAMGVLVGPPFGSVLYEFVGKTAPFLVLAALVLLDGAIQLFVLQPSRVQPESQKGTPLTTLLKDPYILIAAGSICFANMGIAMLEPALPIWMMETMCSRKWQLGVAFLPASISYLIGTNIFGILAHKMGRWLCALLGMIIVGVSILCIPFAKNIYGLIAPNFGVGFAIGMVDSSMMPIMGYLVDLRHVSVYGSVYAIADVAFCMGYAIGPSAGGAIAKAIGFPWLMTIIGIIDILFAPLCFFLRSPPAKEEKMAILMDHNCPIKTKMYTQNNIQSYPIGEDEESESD

`COc1cc2c(cc1OC)C1CC(=O)C(CC(C)C)CN1CC2` (configuration not stated): the pIC50 (in general, the IC50 on a negative log10 scale, so that one unit is a factor of ten) is 7.70.
In the case of `CNc1ccc2c(CCN)cc(=O)oc2c1` it was 5.45.
